Legend:
[1] = system: BIDSU; test: Greenhouse test, post-emergence (PO) application, foliar effect; assay type: in vivo, Bidens subalternans; conditions: BIDSU sensitive, (A) 50, (B) 20, mixture 50 + 20 g of AS/ha, 3 weeks after application
Text: (§1) The 1:1 mixture of the two soil types was used specifically for cultivating small-seeded dicotyledonous weed since the standard field soil on its own tends to silt up, which may have an adverse effect on the emergence of small-seeded weeds. The resistances mentioned in the tables were confirmed beforehand in standard monitoring experiments. Nevertheless, the origins examined may have additional, hitherto unconfirmed resistances to various mechanisms of action.
(§2) The pots were then cultivated in a greenhouse (12-16 h light, temperature day 20-22° C., night 15-18° C.) until the time of application. The pots were treated at various BBCH stages of the seeds/plants on a laboratory track sprayer with spray liquors comprising the compositions according to the invention, mixtures of the prior art or the individual components. Application of the active compounds or active compound combinations and wetting agents formulated as WG, WP, EC or otherwise was carried out at the appropriate growth stages of the plants. The amount of water used for spray application was 100-600 l/ha. After the treatment, the plants were returned to the greenhouses and fertilized and watered as required. The pots were cultivated in a greenhouse (12-16 h light, temperature day 20-22° C., night 15-18° C.).
(§3) 3 weeks after the application, the foliar effect was evaluated on a scale of 0-100%:
(§4) 0%=no noticeable effect compared to untreated plants
(§5) 100%=full effect compared to untreated plants
(§6) The following abbreviations were used: • BBCH the BBCH code provides information about the morphological development stage of a plant. Officially, the abbreviation denotes the Biologische Bundesanstalt, Bundessortenamt and CHemische Industrie [Federal Biological Institute for Agriculture and Forestry, Federal Office for Crop Plant Varieties, Chemical Industry]. The range of BBCH 00-10 denotes the germination stages of the seeds until surface penetration. The range of BBCH 11-25 denotes the leaf development stages until stocking (corresponds to the number of tillers or side-shoots). • PE pre-emergence soil application; BBCH of the seeds/plants 00-10 • PO post-emergence application on the green parts of the plants; BBCH of the plants 11-25 • IU soil loamy silt—standard field soil • l/ha liters per hectare • S sensitive—the weed populations are sensitive to the active compounds tested • TSR target-site resistance. The weed populations comprise biotypes having a site-of-action-specific resistance, i.e. the binding site at the site of action is modified as a result of natural mutations in the gene sequence so that the active compounds are no longer able to bind, or bind in an unsatisfactory manner, and are therefore no longer able to act. • NTR non-target-site herbicide resistance; this is differentiated, inter alia, into EMR (Enhanced Metabolic Resistance) (the weed populations comprise biotypes having metabolic resistance, i.e. the plants are capable of metabolizing the active compounds more quickly via enzyme complexes, i.e. the active compounds are degraded more quickly in the plant), into reduced penetration into the plant, reduced translocation in the plant, accelerated excretion. […]

[2] = system: KCHSC; test: Greenhouse test, pre-emergence (PE) soil application; assay type: in vivo, Kochia scoparia; parameters: key: % effect: 0 = no effect, 100 = full effect vs untreated; conditions: group (B) compound alone, 20 g of AS/ha
Text: as §1, §2, §3, §4, §5, §6

[3] = system: KCHSC; test: Greenhouse test, post-emergence (PO) application, foliar effect; assay type: in vivo, Kochia scoparia; conditions: (A) 50, (B) 20, mixture 50 + 20 g of AS/ha, 3 weeks after application
Text: as §1, §2, §3, §4, §5, §6

[4] = system: AMAPA; test: as above; assay type: in vivo, Amaranthus palmeri; conditions: AMAPA resistant - group B (TSR), C1 (TSR) and G (NTR), (A) 50, (B) 20, mixture 50 + 20 g of AS/ha, 3 weeks after application
Text: as §1, §2, §3, §4, §5, §6

[5] = system: ERIBO; test: as above; assay type: in vivo, Erigeron bonariensis; conditions: (A) 50, (B) 20, mixture 50 + 20 g of AS/ha, 3 weeks after application
Text: as §1, §2, §3, §4, §5, §6

[6] = system: ALOMY; test: Greenhouse test, pre-emergence (PE) soil application; assay type: in vivo, Alopecurus myosuroides; conditions: group (B) compound alone, 20 g of AS/ha
Text: as §1, §2, §3, §4, §5, §6

[7] = system: BIDSU; test: as above; assay type: in vivo, Bidens subalternans; conditions: group (B) compound alone, 20 g of AS/ha
Text: as §1, §2, §3, §4, §5, §6

[8] = system: BRODI; test: as above; assay type: in vivo, Bromus diformis; parameters: key: % effect: 0 = no effect, 100 = full effect vs untreated; conditions: group (B) compound alone, 20 g of AS/ha
Text: as §1, §2, §3, §4, §5, §6

[9] = system: AMATA; test: Greenhouse test, post-emergence (PO) application, foliar effect; assay type: in vivo, Amaranthus rudis; conditions: (A) 50, (B) 20, mixture 50 + 20 g of AS/ha, 3 weeks after application
Text: as §1, §2, §3, §4, §5, §6

[10] = system: CHEAL; test: Greenhouse test, pre-emergence (PE) soil application; assay type: in vivo, Chenopodium album; parameters: key: % effect: 0 = no effect, 100 = full effect vs untreated; conditions: group (B) compound alone, 20 g of AS/ha
Text: as §1, §2, §3, §4, §5, §6

[11] = system: CHEAL; test: Greenhouse test, post-emergence (PO) application, foliar effect; assay type: in vivo, Chenopodium album; conditions: (A) 50, (B) 20, mixture 50 + 20 g of AS/ha, 3 weeks after application
Text: as §1, §2, §3, §4, §5, §6

[12] = system: ALOMY; test: as above; assay type: in vivo, Alopecurus myosuroides; conditions: ALOMY sensitive, (A) 50, (B) 20, mixture 50 + 20 g of AS/ha, 3 weeks after application
Text: as §1, §2, §3, §4, §5, §6

[13] = system: ERICA; test: Greenhouse test, pre-emergence (PE) soil application; assay type: in vivo, Erigeron canadensis; parameters: key: % effect: 0 = no effect, 100 = full effect vs untreated; conditions: group (B) compound alone, 20 g of AS/ha
Text: as §1, §2, §3, §4, §5, §6

[14] = system: BRODI; test: Greenhouse test, post-emergence (PO) application, foliar effect; assay type: in vivo, Bromus diformis; conditions: (A) 50, (B) 20, mixture 50 + 20 g of AS/ha, 3 weeks after application
Text: as §1, §2, §3, §4, §5, §6

[15] = system: ERICA; test: as above; assay type: in vivo, Erigeron canadensis; conditions: (A) 50, (B) 20, mixture 50 + 20 g of AS/ha, 3 weeks after application
Text: as §1, §2, §3, §4, §5, §6

[16] = system: TTTTT (all resistant and sensitive biotypes); test: Greenhouse test, PO application, mean over all resistant and sensitive biotypes; assay type: in vivo; conditions: (A) 50, (B) 20, mixture 50 + 20 g of AS/ha
Text: as §1, §2, §3, §4, §5, §6

What does the source list for `COC(=O)c1csc(C)c1S(=O)(=O)NC(=O)n1nc(OC)n(C)c1=O` [(B5), thiencarbazone-methyl]?
foliar effect [1]: 60%; effect on KCHSC resistant - group B (TSR) [2]: 0; effect on KCHSC sensitive [2]: 85; foliar effect ([3]; KCHSC resistant - group B (TSR)): 0%; foliar effect ([3]; KCHSC sensitive): 90%; foliar effect [4]: 0%; foliar effect ([5]; ERIBO resistant - group B (NA) and G (NTR)): 60%; foliar effect ([5]; ERIBO sensitive): 70%; effect on ALOMY sensitive [6]: 100; effect on BIDSU sensitive [7]: 75; effect on BRODI resistant - group A (TSR), B (NTR) and G (NTR) [8]: 70; effect on BRODI sensitive [8]: 70; foliar effect ([9]; AMATA resistant - group B (TSR), C1 (TSR)): 40%; foliar effect ([9]; AMATA sensitive): 30%; effect on CHEAL resistant - group B (TSR), C1 (NA) and G (NTR) [10]: 60; effect on CHEAL sensitive [10]: 90; foliar effect ([11]; CHEAL resistant - group B (TSR), C1 (NA) and G (NTR)): 70%; foliar effect ([11]; CHEAL sensitive): 70%; foliar effect [12]: 100%; effect on ERICA resistant - group B (NA) and G (NTR) [13]: 0; effect on ERICA sensitive [13]: 60; foliar effect ([14]; BRODI resistant - group A (TSR), B (NTR) and G (NTR)): 50%; foliar effect ([14]; BRODI sensitive): 95%; foliar effect ([15]; ERICA resistant - group B (NA) and G (NTR)): 60%; foliar effect ([15]; ERICA sensitive): 70%; TTTTT resistant mean (effect) ([16]; mean of resistant biotypes (n = 17 or n = 15)): 25%; TTTTT sensitive mean (effect) ([16]; mean of sensitive biotypes (n = 11)): 76%
